Test results: ChEMBL document CHEMBL1142097, “EthA, a common activator of thiocarbamide-containing drugs acting on different mycobacterial targets” (Antimicrob Agents Chemother, 2007)
The source made the active and inactive calls. No cut-off for these calls is given here.

Test system: Mycobacterium tuberculosis
Test: Antimycobacterial activity against Mycobacterium tuberculosis H37Rv
Format: functional, organism-based

## COc1ccc(/C(C)=N/NC(N)=S)cc1
  Activity: Active
